Reference: patent US8334315B2, “Substituted aromatic carboxamide and urea derivatives as vanilloid receptor ligands” (Gruenenthal GmbH, priority 2009, dated 2012)

Legend:
hVR1 [1] = target: T1, hVR1 (Homo sapiens, UniProt Q8NER1); assay: Functional test on human VR1, NADA (N-arachidonoyl dopamine) stimulus; format: cell-based, human being; details: includes values given in brackets after pAG, read-out: Ki (human being) [nM] NADA
T1 construct: expressed in transfected cells; host or cells: CHO K1 cells (ECACC), stably transfected
Excerpt: II. Functional Tests Carried Out on the Vanilloid Receptor (VR1)
The agonistic or antagonistic effect of the substances to be tested on the vanilloid receptor 1 (VR1) can also be determined using the following assay. In this assay, the influx of Ca^2+ through the channel is quantified with the aid of a Ca^2+-sensitive dye (type Fluo-4, Molecular Probes Europe BV, Leiden, the Netherlands) in a fluorescent imaging plate reader (FLIPR, Molecular Devices, Sunnyvale, USA).
Chinese hamster ovary cells (CHO K1 cells, European Collection of Cell Cultures (ECACC) United Kingdom) are stably transfected with the VR1 gene. For functional testing, these cells are plated out on poly-D-lysine-coated black 96-well plates having a clear base (BD Biosciences, Heidelberg, Germany) at a density of 25,000 cells/well. The cells are incubated overnight at 37° C. and 5% CO2 in a culture medium (Ham's F12 nutrient mixture, 10% by volume of FCS (foetal calf serum), 18 μg/ml of L-proline). The next day the cells are incubated with Fluo-4 (Fluo-4 2 μM, 0.01% by volume of Pluronic F127, Molecular Probes in HBSS (Hank's buffered saline solution), Gibco Invitrogen GmbH, Karlsruhe, Germany) for 30 minutes at 37° C. Subsequently, the plates are washed three times with HBSS buffer and after further incubation for 15 minutes at RT used for Ca^2+ measurement in a FLIPR assay. The Ca^2+-dependent fluorescence is measured before and after the addition of the substances to be tested (λex wavelength=488 nm, λem=540 nm). Quantification is carried out by measuring the highest fluorescence intensity (FC, fluorescence counts) over time.
The FLIPR protocol consists of 2 substance additions. First the compounds to be tested (10 μM) are pipetted onto the cells and the Ca^2+ influx is compared with the control (capsaicin 10 μM) (% activation based on the Ca^2+ signal after the addition of 10 μM of capsaicin). […]
Desensitising agonists and antagonists led to suppression of the Ca^2+ influx. The % inhibition is calculated compared to the maximum achievable inhibition with 10 μM of capsaicin.
Starting from the percentage displacement caused by different concentrations of the compounds to be tested of general formula I, IC50 inhibitory concentrations which cause a 50-per cent displacement of capsaicin were calculated. Ki values for the test substances were obtained by conversion by means of the Cheng-Prusoff equation (Cheng, Prusoff; Biochem. Pharmacol. 22, 3099-3108, 1973).
NADA=N-arachidonoyl dopamine

hVR1 [2] = target: T1, hVR1; assay: Functional test on human VR1, 45° C. stimulus; format: cell-based, human being
hVR1 [3] = target: T1, hVR1; assay: Functional test on VR1, FLIPR Ca2+ influx in transfected CHO K1 cells, capsaicin; format: cell-based, human being; details: capsaicin (Cap); includes values given in brackets after pAG; read-out: Ki (human being) [nM] Cap
hVR1 [4] = target: T1, hVR1; assay: Functional test on hVR1 after pH stimulus; format: cell-based, human being; details: @ 10 μM, read-out: IC50 (human being) hVR1, pH: inhibition (as a percentage)
[5] = target: T2, rat-species vanilloid receptor 1 (VR1/TRPV1) (Rattus norvegicus, UniProt O35433); assay: Functional testing on the vanilloid receptor 1, FLIPR Ca2+ influx in rat DRG cells, capsaicin; format: cell-based; set-up: key to Ki (rat) [nM] Cap: agonist / partial agonist / no effect: AG=agonist; pAG=partial agonist; NE=no effect; details: for Ki: capsaicin (Cap), includes values given in brackets after pAG
T2 construct: endogenous in cells; host or cells: primary cells dissociated from rat dorsal root ganglia (DRG), cultured 2-3 days with NGF
Excerpt: I. Functional Testing Carried Out on the Vanilloid Receptor 1 (VRI/TRPV1 Receptor)
The agonistic or antagonistic effect of the substances to be tested on the rat-species vanilloid receptor 1 (VR1/TRPV1) can be determined using the following assay. In this assay, the influx of Ca^2+ through the receptor channel is quantified with the aid of a Ca^2+-sensitive dye (type Fluo-4, Molecular Probes Europe BV, Leiden, the Netherlands) in a fluorescent imaging plate reader (FLIPR, Molecular Devices, Sunnyvale, USA).
Complete medium: 50 ml HAMS F12 nutrient mixture (Gibco Invitrogen GmbH, Karlsruhe, Germany) with
10% by volume of FCS (foetal calf serum, Gibco Invitrogen GmbH, Karlsruhe, Germany, heat-inactivated);
2 mM L-glutamine (Sigma, Munich, Germany);
1% by weight of AA solution (antibiotic/antimyotic solution, PAA, Pasching, Austria) and 25 ng/ml NGF medium (2.5 S, Gibco Invitrogen GmbH, Karlsruhe, Germany)
Cell culture plate: Poly-D-lysine-coated, black 96-well plates having a clear base (96-well black/clear plate, BD Biosciences, Heidelberg, Germany) are additionally coated with laminin (Gibco Invitrogen GmbH, Karlsruhe, Germany), the laminin being diluted with PBS (Ca—Mg-free PBS, Gibco Invitrogen GmbH, Karlsruhe, Germany) to a concentration of 100 μg/ml. Aliquots having a laminin concentration of 100 μg/ml are removed and stored at −20° C. The aliquots are diluted with PBS in a ratio of 1:10 to 10 μg/ml of laminin and respectively 50 μL of the solution are pipetted into a recess in the cell culture plate. The cell culture plates are incubated for at least two hours at 37° C., the excess solution is removed by suction and the recesses are each washed twice with PBS. The coated cell culture plates are stored with excess PBS which is not removed until just before the feeding of the cells.
Preparation of the Cells:
The vertebral column is removed from decapitated rats and placed immediately into cold HBSS buffer (Hank's buffered saline solution, Gibco Invitrogen GmbH, Karlsruhe, Germany), i.e. buffer located in an ice bath, mixed with 1% by volume (per cent by volume) of an AA solution (antibiotic/antimyotic solution, PAA, Pasching, Austria). The vertebral column is cut longitudinally and removed together with fasciae from the vertebral canal. Subsequently, the dorsal root ganglia (DRG) are removed and again stored in cold HBSS buffer mixed with 1% by volume of an AA solution. The DRG, from which all blood remnants and spinal nerves have been removed, are transferred in each case to 500 μL of cold type 2 collagenase (PAA, Pasching, Austria) and incubated for 35 minutes at 37° C. After the addition of 2.5% by volume of trypsin (PAA, Pasching, Austria), incubation is continued for 10 minutes at 37° C. After complete incubation, the enzyme solution is carefully pipetted off and 500 μL of complete medium are added to each of the remaining DRG. The DRG are respectively suspended several times, drawn through cannulae No. 1, No. 12 and No. 16 using a syringe and transferred to a 50 ml Falcon tube which is filled up to 15 ml with complete medium. The contents of each Falcon tube are respectively filtered through a 70 μm Falcon filter element and centrifuged for 10 minutes at 1,200 rpm and RT. The resulting pellet is respectively taken up in 250 μL of complete medium and the cell count is determined.
The number of cells in the suspension is set to 3×10^5 per ml and 150 μL of this suspension are in each case introduced into a recess in the cell culture plates coated as described hereinbefore. In the incubator the plates are left for two to three days at 37° C., 5% by volume of CO2 and 95% relative humidity. […]

hVR1 [6] = target: T1, hVR1; assay: Functional test on VR1, FLIPR Ca2+ influx in transfected CHO K1 cells, capsaicin; format: cell-based; details: capsaicin (Cap), read-out: Ki (human being) Cap column: inhibition (as a percentage)

T2 sequence (O35433 whole entry): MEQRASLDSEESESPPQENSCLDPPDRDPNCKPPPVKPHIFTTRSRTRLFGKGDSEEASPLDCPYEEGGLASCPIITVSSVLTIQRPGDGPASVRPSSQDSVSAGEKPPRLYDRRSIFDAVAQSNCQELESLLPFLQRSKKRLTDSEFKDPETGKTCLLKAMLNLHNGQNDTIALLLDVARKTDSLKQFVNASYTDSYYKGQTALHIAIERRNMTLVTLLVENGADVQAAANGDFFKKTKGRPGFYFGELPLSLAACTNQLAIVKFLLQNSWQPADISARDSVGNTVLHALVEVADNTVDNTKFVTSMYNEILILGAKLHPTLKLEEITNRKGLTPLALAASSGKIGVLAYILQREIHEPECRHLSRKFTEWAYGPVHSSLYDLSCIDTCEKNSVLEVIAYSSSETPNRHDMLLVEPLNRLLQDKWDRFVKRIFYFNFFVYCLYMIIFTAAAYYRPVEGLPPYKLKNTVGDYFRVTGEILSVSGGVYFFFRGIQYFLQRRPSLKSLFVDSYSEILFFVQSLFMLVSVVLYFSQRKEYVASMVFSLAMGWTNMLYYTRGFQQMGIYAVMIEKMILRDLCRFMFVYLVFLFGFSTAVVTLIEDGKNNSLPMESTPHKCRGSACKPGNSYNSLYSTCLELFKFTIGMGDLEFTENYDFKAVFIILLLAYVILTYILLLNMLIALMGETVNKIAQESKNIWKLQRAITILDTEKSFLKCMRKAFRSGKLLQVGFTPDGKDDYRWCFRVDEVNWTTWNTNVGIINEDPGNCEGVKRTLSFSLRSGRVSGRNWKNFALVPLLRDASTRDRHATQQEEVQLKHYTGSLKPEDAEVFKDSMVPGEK
T1 sequence (Q8NER1 whole entry): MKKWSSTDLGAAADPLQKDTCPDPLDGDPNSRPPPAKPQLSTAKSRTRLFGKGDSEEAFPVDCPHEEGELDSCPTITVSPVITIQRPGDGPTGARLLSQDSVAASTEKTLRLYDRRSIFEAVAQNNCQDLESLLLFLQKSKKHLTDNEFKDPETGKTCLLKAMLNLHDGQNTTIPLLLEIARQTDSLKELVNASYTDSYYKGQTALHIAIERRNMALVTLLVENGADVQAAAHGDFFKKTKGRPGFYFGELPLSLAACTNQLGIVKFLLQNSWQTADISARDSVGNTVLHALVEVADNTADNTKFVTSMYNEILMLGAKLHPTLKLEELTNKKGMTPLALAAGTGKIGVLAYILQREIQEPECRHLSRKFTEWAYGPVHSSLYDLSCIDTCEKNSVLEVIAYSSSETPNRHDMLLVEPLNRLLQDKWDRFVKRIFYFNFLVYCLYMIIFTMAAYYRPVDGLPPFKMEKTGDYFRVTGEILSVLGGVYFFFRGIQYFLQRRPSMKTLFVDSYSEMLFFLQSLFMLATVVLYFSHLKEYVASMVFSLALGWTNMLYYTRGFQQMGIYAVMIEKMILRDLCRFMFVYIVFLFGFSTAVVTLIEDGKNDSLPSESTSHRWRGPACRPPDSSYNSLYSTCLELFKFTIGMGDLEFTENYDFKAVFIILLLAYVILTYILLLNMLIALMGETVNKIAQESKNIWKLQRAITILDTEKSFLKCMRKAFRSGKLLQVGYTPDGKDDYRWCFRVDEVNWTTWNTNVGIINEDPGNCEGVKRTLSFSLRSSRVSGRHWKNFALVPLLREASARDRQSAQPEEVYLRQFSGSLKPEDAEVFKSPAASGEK

| Compound | Ki (hVR1 [1]) [nM] | inhibition at 10 µM (hVR1 [2]; @ 10 μM, read-out: IC50 (human being), 45° C.: inhibition (as a percentage)) [%] | Ki (hVR1 [3]) [nM] | inhibition at 10 µM (hVR1 [4]) [%] | Ki (rat) [nM] Cap: agonist / partial agonist / no effect [5] | Ki [5] [nM] | inhibition at 5 µM (hVR1 [6]) [%] | IC50 (hVR1 [2]; read-out: IC50 (human being) [nM], 45° C.) [nM] |
| --- | --- | --- | --- | --- | --- | --- | --- | --- |
| CC(C(=O)NCc1cc(C(C)(C)C)nn1-c1ccc(F)c(Cl)c1)c1cccc2cnccc12 (stereo not drawn) [Example 69, N-((3-tert-butyl-1-(3-chloro-4-fluorophenyl)-1H-pyrazol-5-yl)methyl)-2-(isoquinolin-5-yl)propanamide] | 0.004 | 26 | 0.2 | 13 | pAG | 0.9 | – | – |
| COc1ccc(Cn2nc(C(F)(F)F)cc2CNC(=O)C(C)c2ccc3c(c2)OCCO3)cc1 (stereo not drawn) [Example 202, 2-(2,3-dihydrobenzo[b][1,4]dioxin-6-yl)-N-((1-(4-methoxybenzyl)-3-(trifluoromethyl)-1H-pyrazol-5-yl)methyl)propanamide] | – | – | – | – | – | – | 13 | – |
| CC(C(=O)NCc1cc(C(F)(F)F)nn1-c1cccc(Cl)c1)c1cccc2[nH]ncc12 (stereo not drawn) [Example 27, N-((1-(3-chlorophenyl)-3-(trifluoromethyl)-1H-pyrazol-5-yl)methyl)-2-(1H-indazol-4-yl)propanamide] | 0.008 | – | 1.1 | 13 | – | 11.2 | – | 297 |
